Experimental findings from publication PMC11022693, “Targeting C21orf58 is a Novel Treatment Strategy of Hepatocellular Carcinoma by Disrupting the Formation of JAK2/C21orf58/STAT3 Complex” (Advanced Science, 2024) are described below.

The test deals with T1, C21orf58 (Homo sapiens, UniProt P58505).
T1 construct: human C21orf58 in pET-21a, expressed in E. coli Rosetta (DE3), Ni-NTA purified, lyophilized
As to the kind of experiment: 1H NMR of mixed ligand and purified protein. The settings on record: deuterated water; mixed and incubated 30 min at room temperature; 600 MHz. Format: binding.

T1 sequence (P58505 whole entry): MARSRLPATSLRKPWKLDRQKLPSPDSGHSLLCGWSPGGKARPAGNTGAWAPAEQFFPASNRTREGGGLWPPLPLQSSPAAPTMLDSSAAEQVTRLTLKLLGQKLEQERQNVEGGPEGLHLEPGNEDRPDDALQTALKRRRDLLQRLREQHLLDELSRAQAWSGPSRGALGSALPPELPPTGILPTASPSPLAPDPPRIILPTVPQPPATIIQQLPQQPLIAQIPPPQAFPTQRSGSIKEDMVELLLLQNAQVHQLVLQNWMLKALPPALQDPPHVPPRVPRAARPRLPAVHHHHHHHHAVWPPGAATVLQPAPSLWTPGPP

On to `C=C(C)CNc1ccc(C(C)C(=O)O)cc1` (stereo not shown) [alminoprofen], for which the “1H NMR of mixed ligand and purified protein” value is “H Nuclear Magnetic Resonance Spectra suggested that alminoprofen could bind on the C21orf58 protein”.
